According to article PMC3674748, “High-level expression and characterization of a chimeric lipase from Rhizopus oryzae for biodiesel production” (Biotechnology for Biofuels, 2013):

Experiments:
r28ROL = molecular target: T1, r28ROL (Rhizopus arrhizus, UniProt P61872); assay: interfacial kinetics, p-nitrophenol release from emulsified pNPP; assay type: biochemical; conditions: heterogeneous (emulsion) medium; free purified enzyme; value not given
T1 construct: Pichia pastoris GS115, secreted, purified; proROL without signal peptide cleaved Kex2-like; about 37 kDa on SDS-PAGE
T1 sequence (P61872 96-392): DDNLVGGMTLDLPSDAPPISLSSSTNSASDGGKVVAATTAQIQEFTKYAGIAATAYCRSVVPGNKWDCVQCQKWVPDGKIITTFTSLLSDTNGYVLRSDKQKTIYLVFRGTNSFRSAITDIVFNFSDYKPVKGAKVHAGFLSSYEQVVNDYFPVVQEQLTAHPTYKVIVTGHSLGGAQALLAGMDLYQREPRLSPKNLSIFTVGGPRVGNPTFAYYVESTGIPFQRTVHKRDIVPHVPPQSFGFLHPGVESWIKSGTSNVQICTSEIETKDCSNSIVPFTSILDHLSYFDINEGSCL

mROL = molecular target: T2, mROL (Rhizopus arrhizus, UniProt P61872); assay: residual activity after heat treatment, pNPP assay; assay type: biochemical; conditions: turnover only; 1 h pre-incubation at 40 °C
T2 sequence (P61872 124-392): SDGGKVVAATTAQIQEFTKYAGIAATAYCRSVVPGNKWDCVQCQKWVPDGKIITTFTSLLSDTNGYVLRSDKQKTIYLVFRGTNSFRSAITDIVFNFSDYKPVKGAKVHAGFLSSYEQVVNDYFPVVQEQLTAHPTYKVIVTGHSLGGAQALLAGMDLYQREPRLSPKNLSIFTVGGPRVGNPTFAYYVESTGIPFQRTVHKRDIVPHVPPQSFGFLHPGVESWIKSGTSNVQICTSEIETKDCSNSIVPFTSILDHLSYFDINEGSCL

In the case of CCCCCCCCCCCCCCCC(=O)Oc1ccc([N+](=O)[O-])cc1 [p-nitrophenyl palmitate], the “Km*” value (r28ROL) is reported as “The kinetic parameters were determined using p-nitrophenyl palmitate (pNPP) as substrate” and the “residual activity after heat treatment, pNPP assay” value (mROL) is reported as “thermostability of the mature R. oryzae lipase by P. pastoris in this study”.
